Experimental data published in PubChem BioAssay (NCI).
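Values below derive from 48-hour exposures of cells grown in 96-well plates, with endpoints linearly interpolated between the two concentrations bracketing the appropriate inhibition level. The concentration for 50% growth inhibition is given as GI50. TGI: concentration producing complete growth inhibition.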

Legend:
Assay in all cases: growth of human tumour cells (NCI), 48 h
UO-31 renal = tested on: UO-31 renal
NCI-H226 lung = tested on: NCI-H226 lung
HOP-62 NSCLC = tested on: HOP-62 NSCLC
SF-539 CNS = tested on: SF-539 CNS
U251 CNS = tested on: U251 CNS
NCI/ADR-RES ovarian = tested on: NCI/ADR-RES ovarian
CCRF-CEM leukemia = tested on: CCRF-CEM leukemia
T-47D breast = tested on: T-47D breast
MOLT-4 leukemia = tested on: MOLT-4 leukemia
SK-MEL-2 melanoma = tested on: SK-MEL-2 melanoma
MDA-MB-435 = tested on: MDA-MB-435
MDA-MB-231 breast = tested on: MDA-MB-231 breast
SF-295 CNS = tested on: SF-295 CNS
SK-MEL-28 melanoma = tested on: SK-MEL-28 melanoma
IGROV1 ovarian = tested on: IGROV1 ovarian
M14 melanoma = tested on: M14 melanoma
NCI-H460 lung = tested on: NCI-H460 lung
SK-MEL-5 melanoma = tested on: SK-MEL-5 melanoma
NCI-H522 lung = tested on: NCI-H522 lung
OVCAR-8 ovarian = tested on: OVCAR-8 ovarian
HT29 colon = tested on: HT29 colon
SR leukemia = tested on: SR leukemia
SN12C renal = tested on: SN12C renal
HCC-2998 colon = tested on: HCC-2998 colon
ACHN renal = tested on: ACHN renal
BT-549 breast = tested on: BT-549 breast
NCI-H23 lung = tested on: NCI-H23 lung
A549 NSCLC = tested on: A549 NSCLC
LOX IMVI melanoma = tested on: LOX IMVI melanoma
EKVX NSCLC = tested on: EKVX NSCLC
HCT-15 colon = tested on: HCT-15 colon
TK-10 renal = tested on: TK-10 renal
SNB-75 CNS = tested on: SNB-75 CNS
HOP-92 NSCLC = tested on: HOP-92 NSCLC
SW-620 colon = tested on: SW-620 colon
KM12 colon = tested on: KM12 colon
PC-3 prostate = tested on: PC-3 prostate
RPMI-8226 leukemia = tested on: RPMI-8226 leukemia
COLO 205 colon = tested on: COLO 205 colon
HL-60(TB) leukemia = tested on: HL-60(TB) leukemia
MALME-3M melanoma = tested on: MALME-3M melanoma
DU-145 prostate = tested on: DU-145 prostate
RXF 393 renal = tested on: RXF 393 renal
A498 renal = tested on: A498 renal
OVCAR-4 ovarian = tested on: OVCAR-4 ovarian
UACC-62 melanoma = tested on: UACC-62 melanoma
SF-268 CNS = tested on: SF-268 CNS
OVCAR-5 ovarian = tested on: OVCAR-5 ovarian
OVCAR-3 ovarian = tested on: OVCAR-3 ovarian
HCT-116 colon = tested on: HCT-116 colon
UACC-257 melanoma = tested on: UACC-257 melanoma
SK-OV-3 ovarian = tested on: SK-OV-3 ovarian
HS 578T breast = tested on: HS 578T breast
786-0 renal = tested on: 786-0 renal
SNB-19 CNS = tested on: SNB-19 CNS
MCF7 breast = tested on: MCF7 breast

## O=C(O)c1sccc1O
UO-31 renal
  GI50: 15.2 µM
  TGI: > 100 µM
NCI-H226 lung
  GI50: > 100 µM
  TGI: > 100 µM
HOP-62 NSCLC
  GI50: 22.2 µM
  TGI: > 100 µM
SF-539 CNS
  GI50: 28.8 µM
  TGI: > 100 µM
U251 CNS
  GI50: 34.7 µM
  TGI: > 100 µM
NCI/ADR-RES ovarian
  GI50: 40.5 µM
  TGI: > 100 µM
CCRF-CEM leukemia
  GI50: 31.9 µM
  TGI: > 100 µM
T-47D breast
  GI50: 33.3 µM
  TGI: > 100 µM
MOLT-4 leukemia
  GI50: 34.9 µM
  TGI: > 100 µM
SK-MEL-2 melanoma
  GI50: 35.1 µM
  TGI: > 100 µM
MDA-MB-435
  GI50: 27.1 µM
  TGI: > 100 µM
MDA-MB-231 breast
  GI50: 16.4 µM
  TGI: 73.5 µM
SF-295 CNS
  GI50: 34.8 µM
  TGI: > 100 µM
SK-MEL-28 melanoma
  GI50: 32.2 µM
  TGI: > 100 µM
IGROV1 ovarian
  GI50: 21.8 µM
  TGI: > 100 µM
M14 melanoma
  GI50: 27 µM
  TGI: > 100 µM
NCI-H460 lung
  GI50: 33.5 µM
  TGI: > 100 µM
SK-MEL-5 melanoma
  GI50: 25.3 µM
  TGI: 99.2 µM
NCI-H522 lung
  GI50: 25.4 µM
  TGI: 80.7 µM
OVCAR-8 ovarian
  GI50: 47.7 µM
  TGI: > 100 µM
HT29 colon
  GI50: 57.5 µM
  TGI: > 100 µM
SR leukemia
  GI50: 34.5 µM
  TGI: > 100 µM
SN12C renal
  GI50: 32.7 µM
  TGI: > 100 µM
HCC-2998 colon
  GI50: 36.6 µM
  TGI: > 100 µM
ACHN renal
  GI50: 28.6 µM
  TGI: > 100 µM
BT-549 breast
  GI50: 21.6 µM
  TGI: > 100 µM
NCI-H23 lung
  GI50: 37.3 µM
  TGI: > 100 µM
A549 NSCLC
  GI50: 50.3 µM
  TGI: > 100 µM
LOX IMVI melanoma
  GI50: 26.4 µM
  TGI: > 100 µM
EKVX NSCLC
  GI50: 21.7 µM
  TGI: > 100 µM
HCT-15 colon
  GI50: 32.1 µM
  TGI: > 100 µM
TK-10 renal
  GI50: 89.6 µM
  TGI: > 100 µM
SNB-75 CNS
  GI50: 15.9 µM
  TGI: > 100 µM
HOP-92 NSCLC
  GI50: 24.9 µM
  TGI: > 100 µM
SW-620 colon
  GI50: 31.4 µM
  TGI: > 100 µM
KM12 colon
  GI50: 30.6 µM
  TGI: > 100 µM
PC-3 prostate
  GI50: 24.2 µM
  TGI: > 100 µM
RPMI-8226 leukemia
  GI50: 25.2 µM
  TGI: > 100 µM
COLO 205 colon
  GI50: 60.1 µM
  TGI: > 100 µM
HL-60(TB) leukemia
  GI50: 33.9 µM
  TGI: 90.1 µM
MALME-3M melanoma
  GI50: 83.4 µM
  TGI: > 100 µM
DU-145 prostate
  GI50: 48 µM
  TGI: > 100 µM
RXF 393 renal
  GI50: 32 µM
  TGI: > 100 µM
A498 renal
  GI50: 52.3 µM
  TGI: > 100 µM
OVCAR-4 ovarian
  GI50: 26.4 µM
  TGI: > 100 µM
UACC-62 melanoma
  GI50: 17.9 µM
  TGI: 52 µM
SF-268 CNS
  GI50: 33.2 µM
  TGI: > 100 µM
OVCAR-5 ovarian
  GI50: 76.3 µM
  TGI: > 100 µM
OVCAR-3 ovarian
  GI50: 32.7 µM
  TGI: > 100 µM
HCT-116 colon
  GI50: 31.2 µM
  TGI: > 100 µM
UACC-257 melanoma
  GI50: 47.2 µM
  TGI: > 100 µM
SK-OV-3 ovarian
  GI50: > 100 µM
  TGI: > 100 µM
HS 578T breast
  GI50: 24.9 µM
  TGI: > 100 µM
786-0 renal
  GI50: 60.9 µM
  TGI: > 100 µM
SNB-19 CNS
  GI50: 41.3 µM
  TGI: > 100 µM
MCF7 breast
  GI50: 31.5 µM
  TGI: > 100 µM
